Source: patent publication US20250302815A1, “PROTEIN TYROSINE PHOSPHATASE TARGETING LIGANDS” (CALICO LIFE SCIENCES LLC, priority 2021, published 2025)

What was measured:
PTPN2 (B16F10.4 cells) = target: T1, PTPN2 (B16F10.4 cells) (Mus musculus, UniProt Q06180); assay: HiBiT Degradation B16F10.4 PTPN2; type: cell-based; conditions: 24.0 hours
T1 construct: HiBiT; host or cells: B16F10.4
T1 sequence (Q06180 1-406): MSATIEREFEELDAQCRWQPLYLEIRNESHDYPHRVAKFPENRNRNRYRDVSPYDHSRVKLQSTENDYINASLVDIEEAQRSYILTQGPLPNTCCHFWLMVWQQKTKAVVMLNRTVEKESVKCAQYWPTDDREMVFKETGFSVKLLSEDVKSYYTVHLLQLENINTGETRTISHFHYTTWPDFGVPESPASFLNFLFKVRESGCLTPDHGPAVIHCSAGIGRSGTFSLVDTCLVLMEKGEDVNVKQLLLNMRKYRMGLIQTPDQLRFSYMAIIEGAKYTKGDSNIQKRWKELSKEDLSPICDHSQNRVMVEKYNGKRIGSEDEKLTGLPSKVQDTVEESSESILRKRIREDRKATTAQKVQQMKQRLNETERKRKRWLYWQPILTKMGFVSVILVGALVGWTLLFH

[1] = target: T2, PTPN2 (HiBIT-PTPN2 in 293T.109 cells) (Homo sapiens, UniProt P17706); assay: HiBiT Degradation 293T.109 PTPN2 (Nano-Glo HiBiT Lytic Assay); type: cell-based; conditions: 24.0 hours
T2 construct: expressed in transfected cells; host or cells: 293T.109 (293T WT from ATCC)
T2 sequence (P17706 1-415): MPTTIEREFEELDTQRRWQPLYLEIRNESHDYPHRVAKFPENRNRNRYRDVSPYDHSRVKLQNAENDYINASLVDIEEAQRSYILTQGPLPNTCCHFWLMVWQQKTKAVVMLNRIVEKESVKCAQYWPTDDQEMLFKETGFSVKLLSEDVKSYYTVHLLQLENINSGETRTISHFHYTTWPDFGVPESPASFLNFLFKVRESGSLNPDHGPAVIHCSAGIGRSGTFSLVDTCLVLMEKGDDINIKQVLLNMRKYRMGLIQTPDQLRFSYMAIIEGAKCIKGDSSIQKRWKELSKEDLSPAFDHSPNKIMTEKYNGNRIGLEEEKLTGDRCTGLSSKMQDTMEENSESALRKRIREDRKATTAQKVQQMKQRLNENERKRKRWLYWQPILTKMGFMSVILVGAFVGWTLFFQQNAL
Outline: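 Degradation read-out: lytic HiBiT luminescence after 24 h treatment (37 °C, 5% CO2) of 5000 293T cells per well expressing HiBiT-fused PTPN2 from an N-terminal tag. Dosing was 11 points, half-log steps down from 10 μM, in duplicate; vehicle-treated and no-reagent wells served as controls.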

Row | DC50 (PTPN2 (B16F10.4 cells)) | DC50 [1] | SMILES
1 | 50 to 200 nM | 50 to 200 nM | Cn1c(=O)n(C2CCC(=O)NC2=O)c2ccc(N3CCN(C(=O)Nc4cccc(CS(=O)(=O)N5CC[C@H](Nc6cccc(-c7sc(C(=O)O)c(OCC(=O)O)c7Cl)c6)CC5(C)C)c4)CC3)cc21 (stereo partly drawn) [Example 80, 3-(Carboxymethoxy)-4-chloro-5-[3-[[(4S)-1-[[3-[[4-[1-(2,6-dioxo-3-piperidyl)-3-methyl-2-oxo-benzimidazol-5-yl]piperazine-1-carbonyl]amino]phenyl]methylsulfonyl]-2,2-dimethyl-4-piperidyl]amino]phenyl]thiophene-2-carboxylic acid]
2 | 50 to 200 nM | 50 to 200 nM | Cn1c(=O)n(C2CCC(=O)NC2=O)c2ccc(NC3CCN(C(=O)Nc4cccc(CS(=O)(=O)N5CC[C@H](Nc6cccc(-c7sc(C(=O)O)c(OCC(=O)O)c7Cl)c6)CC5(C)C)c4)CC3)cc21 (stereo partly drawn) [Example 81, 3-(carboxymethoxy)-4-chloro-5-[3-[[(4S)-1-[[3-[[4-[[1-(2,6-dioxo-3-piperidyl)-3-methyl-2-oxo-benzimidazol-5-yl]amino]piperidine-1-carbonyl]amino]phenyl]methylsulfonyl]-2,2-dimethyl-4-piperidyl]amino]phenyl]thiophene-2-carboxylic acid]
3 | < 50 nM | < 50 nM | CC1(C)C[C@@H](Nc2cccc(-c3sc(C(=O)O)c(OCC(=O)O)c3Cl)c2)CCN1S(=O)(=O)Cc1cccc(NC(=O)N2CCC(c3ccc4c5c(cccc35)C(=O)N4C3CCC(=O)NC3=O)CC2)c1 (stereo partly drawn) [Example 82, 3-(carboxymethoxy)-4-chloro-5-[3-[[(4S)-1-[[3-[[4-[1-(2,6-dioxo-3-piperidyl)-2-oxo-benzo[cd]indol-6-yl]piperidine-1-carbonyl]amino]phenyl]methylsulfonyl]-2,2-dimethyl-4-piperidyl]amino]phenyl]thiophene-2-carboxylic acid]
4 | 50 to 200 nM | < 50 nM | CC1(C)C[C@@H](Nc2cccc(-c3sc(C(=O)O)c(OCC(=O)O)c3Cl)c2)CCN1S(=O)(=O)Cc1cccc(NC(=O)CN2CCC(c3ccc4c5c(cccc35)C(=O)N4C3CCC(=O)NC3=O)CC2)c1 (stereo partly drawn) [Example 83, 3-(carboxymethoxy)-4-chloro-5-[3-[[(4S)-1-[[3-[[2-[4-[1-(2,6-dioxo-3-piperidyl)-2-oxo-benzo[cd]indol-6-yl]-1-piperidyl]acetyl]amino]phenyl]methylsulfonyl]-2,2-dimethyl-4-piperidyl]amino]phenyl]thiophene-2-carboxylic acid]
5 | ≥ 1000 nM | 200 to 1000 nM | CC1(C)C[C@@H](Nc2cccc(-c3sc(C(=O)O)c(OCC(=O)O)c3Cl)c2)CCN1S(=O)(=O)Cc1cccc(NC(=O)N2CCC(C(=O)NCc3cccc4c3CN(C3CCC(=O)NC3=O)C4=O)CC2)c1 (stereo partly drawn) [Example 84, 3-(carboxymethoxy)-4-chloro-5-[3-[[(4S)-1-[[3-[[4-[[2-(2,6-dioxo-3-piperidyl)-1-oxo-isoindolin-4-yl]methylcarbamoyl]piperidine-1-carbonyl]amino]phenyl]methylsulfonyl]-2,2-dimethyl-4-piperidyl]amino]phenyl]thiophene-2-carboxylic acid]
6 | 200 to 1000 nM | 50 to 200 nM | CC1(C)C[C@@H](Nc2cccc(-c3sc(C(=O)O)c(OCC(=O)O)c3Cl)c2)CCN1S(=O)(=O)Cc1cccc(NC(=O)OC2CCN(C(=O)CNc3cccc4c3CN(C3CCC(=O)NC3=O)C4=O)CC2)c1 (some centres unmarked) [Example 85]
7 | 200 to 1000 nM | 50 to 200 nM | CC1(C)C[C@@H](Nc2cccc(-c3sc(C(=O)O)c(OCC(=O)O)c3Cl)c2)CCN1S(=O)(=O)Cc1cccc(NC(=O)[C@H]2CC[C@H](C(=O)Nc3cccc4c3CN(C3CCC(=O)NC3=O)C4=O)CC2)c1 (stereo partly drawn) [Example 86, 3-(carboxymethoxy)-4-chloro-5-(3-(((4S)-1-((3-((1r,4R)-4-((2-(2,6-dioxopiperidin-3-yl)-1-oxoisoindolin-4-yl)carbamoyl)cyclohexane-1-carboxamido)benzyl)sulfonyl)-2,2-dimethylpiperidin-4-yl)amino)phenyl)thiophene-2-carboxylic acid]
